Results reported in patent US20230241050A1, “APPLICATIONS OF HPK1 KINASE INHIBITOR IN PREVENTING AND/OR TREATING ANIMAL PATHOGEN INFECTION” (ZHUHAI YUFAN BIOTECHNOLOGIES CO., LTD, priority 2020, published 2023).

How the values were obtained:
[1] = test system: feline infectious peritonitis (FIP); assay: Clinical survival of cats with clinically confirmed FIP, treatment group vs control group (Example 2); format: in vivo, cat; conditions: 14 days; 2.0 mg/kg SC q24h D1-D14 plus supportive treatment, 7 cats vs 8 control cats; both pre-treated with GS-441524 for 3 days; Log Rank and Breslow tests, P < 0.05
Text: A total of 15 cats with clinically confirmed FIP were enrolled, with hydrothorax/ascites, positive CT value by PCR, and no neurological symptoms. 8 cats were allocated into the control group, and 7 cats were allocated into the treatment group.
The groups were pre-treated with GS-441524 for 3 days. For the control group, necessary supportive treatment was given on D1-D14. For the treatment group, after 3 days of observation, necessary supportive treatment and the drug of the present invention (2.0 mg/kg, SC, q24 h) were given on D1-D14.
The occurrence of death or neurological symptoms was judged as clinical death, and the clinical survival curve was plotted after 14 days.

[2] = test system: feline infectious peritonitis (FIP), feline coronavirus positive; assay: Treatment of a cat with recurrent feline infectious peritonitis (Example 1): daily clinical observation, body weight, chest X-ray; format: in vivo; conditions: for Food intake: D0: Decreased intake - 3; for Mental state: D0: Listless - 3; for Defecation condition / Respiratory state: D0: Normal - 5; for Body temperature Afternoon: D0 value 38.5; for body weight: 2.5 kg at enrollment (D0)
Method: Lele, a British shorthair cat, 8 months old, female, unneutered, weighing 2.5 kg. The cat had symptoms of elevated body temperature, mental depression, anorexia, and enlarged abdominal circumference in January, 2020. One week later, the cat was admitted. On January 18, the cat was diagnosed with feline infectious peritonitis (FIP) positive. After being treated with GS-441524 for 3 days, the cat was then given furosemide, Synulox®, prednisolone and itraconazole (P.O., q24h, 10 mg/kg) for 1 month. The drugs were discontinued after ascites regressed. […] The cat was enrolled on April 8, and was treated with the drug of the present invention at 2.0 mg/kg (SC, q24h) on days 1-14 (D1-14). Proper supportive treatments were given at the same time, including adjuvant treatment such as Moringa (a hepatoprotective drug), Lysinphirst (lysine) and Doctor Dolittle® (lactoferrin).
The pharmaceutically active compound described above is a pure powder have the following structure. The compound was added to a 0.9% normal saline (50 mL of endotoxin-free water and 0.45 g of NaCl), and the resulting mixture was uniformly mixed and filtered through a filter membrane to give a clarified solution. The diluted compound was stored in a plastic-sealed sterile vial, stored in a refrigerator at 4° C., gently brought to room temperature before injection, and administered using a disposable syringe. The injection ranged across the back, starting from 2 cm posterior to the scapula to the middle of the lumbar spine, half of the distance of the adjacent chest to flank.
The treatment was given by injection in the morning every day, body temperature, appetite, mental state and respiratory state were measured and evaluated at 15:00 pm, and urination and defecation conditions were recorded.
The body weight increased by 9% during and after the treatment.

In the case of `CN1CCC(c2ncc(-c3cnc(N)c(OCc4cccc(C#CC(C)(C)O)c4)c3)s2)CC1` [the drug of the present invention, 4-(3-{2-amino-5-[2-(1-methyl-piperidin-4-yl)thiazol-5-yl]pyridin-3-yloxymethyl}phenyl)-2-methyl-but-3-yn-2-ol], the “clinical survival curve (death or neurological symptoms = clinical death), treatment group vs control group” value [1] is reported as “significant difference”, the Food intake ([2]; D1 (4-9), 2.0 mg/kg SC q24h) is reported as “Decreased intake - 3” and the Mental state ([2]; D1 (4-9), 2.0 mg/kg SC q24h) is reported as “Slightly improved - 3.5”. The Defecation condition ([2]; D1 (4-9), 2.0 mg/kg SC q24h) was “Normal”, the Respiratory state ([2]; D1 (4-9), 2.0 mg/kg SC q24h) was “Normal” and the Body temperature Afternoon ([2]; D1 (4-9), 2.0 mg/kg SC q24h) was 38.6 °C. The Food intake ([2]; D2 (4-10), 2.0 mg/kg SC q24h) was “Improved - 4”, the Mental state ([2]; D2 (4-10), 2.0 mg/kg SC q24h) was “Improved - 4” and the Defecation condition ([2]; D2 (4-10), 2.0 mg/kg SC q24h) was “Normal”. The Respiratory state ([2]; D2 (4-10), 2.0 mg/kg SC q24h) was “Normal”, the Body temperature Afternoon ([2]; D2 (4-10), 2.0 mg/kg SC q24h) was 38.1 °C and the Food intake ([2]; D3 (4-11), 2.0 mg/kg SC q24h) was “Good - 5”. The Mental state ([2]; D3 (4-11), 2.0 mg/kg SC q24h) was “Good - 5”, the Defecation condition ([2]; D3 (4-11), 2.0 mg/kg SC q24h) was “Normal” and the Respiratory state ([2]; D3 (4-11), 2.0 mg/kg SC q24h) was “Normal”. For the same compound, the Body temperature Afternoon ([2]; D3 (4-11), 2.0 mg/kg SC q24h) was 38 °C, the Food intake ([2]; D4 (4-12), 2.0 mg/kg SC q24h) was “Good” and the Mental state ([2]; D4 (4-12), 2.0 mg/kg SC q24h) was “Good”. For the same compound, the Defecation condition ([2]; D4 (4-12), 2.0 mg/kg SC q24h) was “Normal”, the Respiratory state ([2]; D4 (4-12), 2.0 mg/kg SC q24h) was “Normal” and the Body temperature Afternoon ([2]; D4 (4-12), 2.0 mg/kg SC q24h) was 38.3 °C. The Food intake ([2]; D5 (4-13), 2.0 mg/kg SC q24h) was “Good”, the Mental state ([2]; D5 (4-13), 2.0 mg/kg SC q24h) was “Good” and the Defecation condition ([2]; D5 (4-13), 2.0 mg/kg SC q24h) was “Normal”. The Respiratory state ([2]; D5 (4-13), 2.0 mg/kg SC q24h) was “Normal”, the Body temperature Afternoon ([2]; D5 (4-13), 2.0 mg/kg SC q24h) was 38.3 °C and the Food intake ([2]; D6 (4-14), 2.0 mg/kg SC q24h) was “Good”. The Mental state ([2]; D6 (4-14), 2.0 mg/kg SC q24h) was “Good”, the Defecation condition ([2]; D6 (4-14), 2.0 mg/kg SC q24h) was “Normal” and the Respiratory state ([2]; D6 (4-14), 2.0 mg/kg SC q24h) was “Normal”. For the same compound, the Body temperature Afternoon ([2]; D6 (4-14), 2.0 mg/kg SC q24h) was 38.3 °C, the body weight ([2]; D7 (4-15), 2.0 mg/kg SC q24h) was 2.75 kg body weight and the Food intake ([2]; D7 (4-15), 2.0 mg/kg SC q24h) was “Good”. The Mental state ([2]; D7 (4-15), 2.0 mg/kg SC q24h) was “Good”, the Defecation condition ([2]; D7 (4-15), 2.0 mg/kg SC q24h) was “Normal” and the Respiratory state ([2]; D7 (4-15), 2.0 mg/kg SC q24h) was “Normal”. The Body temperature Afternoon ([2]; D7 (4-15), 2.0 mg/kg SC q24h) was 38.1 °C, the Food intake ([2]; D8 (4-16), 2.0 mg/kg SC q24h) was “Good” and the Mental state ([2]; D8 (4-16), 2.0 mg/kg SC q24h) was “Good”. For the same compound, the Defecation condition ([2]; D8 (4-16), 2.0 mg/kg SC q24h) was “Normal”, the Respiratory state ([2]; D8 (4-16), 2.0 mg/kg SC q24h) was “Normal” and the Body temperature Afternoon ([2]; D8 (4-16), 2.0 mg/kg SC q24h) was 38 °C. For the same compound, the Food intake ([2]; D9 (4-17), 2.0 mg/kg SC q24h) was “Good”, the Mental state ([2]; D9 (4-17), 2.0 mg/kg SC q24h) was “Good” and the Defecation condition ([2]; D9 (4-17), 2.0 mg/kg SC q24h) was “Normal”. For the same compound, the Respiratory state ([2]; D9 (4-17), 2.0 mg/kg SC q24h) was “Normal”, the Body temperature Afternoon ([2]; D9 (4-17), 2.0 mg/kg SC q24h) was 38.2 °C and the Food intake ([2]; D10 (4-18), 2.0 mg/kg SC q24h) was “Good”. The Mental state ([2]; D10 (4-18), 2.0 mg/kg SC q24h) was “Good”, the Defecation condition ([2]; D10 (4-18), 2.0 mg/kg SC q24h) was “Normal” and the Respiratory state ([2]; D10 (4-18), 2.0 mg/kg SC q24h) was “Normal”. For the same compound, the Body temperature Afternoon ([2]; D10 (4-18), 2.0 mg/kg SC q24h) was 38.3 °C, the Food intake ([2]; D11 (4-19), 2.0 mg/kg SC q24h) was “Good” and the Mental state ([2]; D11 (4-19), 2.0 mg/kg SC q24h) was “Good”. For the same compound, the Defecation condition ([2]; D11 (4-19), 2.0 mg/kg SC q24h) was “Normal”, the Respiratory state ([2]; D11 (4-19), 2.0 mg/kg SC q24h) was “Normal” and the Body temperature Afternoon ([2]; D11 (4-19), 2.0 mg/kg SC q24h) was 38.4 °C. For the same compound, the Food intake ([2]; D12 (4-20), 2.0 mg/kg SC q24h) was “Good”, the Mental state ([2]; D12 (4-20), 2.0 mg/kg SC q24h) was “Good” and the Defecation condition ([2]; D12 (4-20), 2.0 mg/kg SC q24h) was “Normal”. The Respiratory state ([2]; D12 (4-20), 2.0 mg/kg SC q24h) was “Normal”, the Body temperature Afternoon ([2]; D12 (4-20), 2.0 mg/kg SC q24h) was 38.5 °C and the Body temperature Morning ([2]; D13 (4-21), 2.0 mg/kg SC q24h) was 38.9 °C. The Food intake ([2]; D13 (4-21), 2.0 mg/kg SC q24h) was “Good”, the Mental state ([2]; D13 (4-21), 2.0 mg/kg SC q24h) was “Good” and the Defecation condition ([2]; D13 (4-21), 2.0 mg/kg SC q24h) was “Normal”. For the same compound, the Respiratory state ([2]; D13 (4-21), 2.0 mg/kg SC q24h) was “Normal”, the Body temperature Afternoon ([2]; D13 (4-21), 2.0 mg/kg SC q24h) was 38.5 °C and the Body temperature Morning ([2]; D14 (4-22), 2.0 mg/kg SC q24h) was 38.4 °C. The body weight ([2]; D14 (4-22), 2.0 mg/kg SC q24h) was 2.75 kg body weight, the Food intake ([2]; D14 (4-22), 2.0 mg/kg SC q24h) was “Good” and the Mental state ([2]; D14 (4-22), 2.0 mg/kg SC q24h) was “Good”. For the same compound, the Defecation condition ([2]; D14 (4-22), 2.0 mg/kg SC q24h) was “Normal”, the Respiratory state ([2]; D14 (4-22), 2.0 mg/kg SC q24h) was “Normal” and the Body temperature Afternoon ([2]; D14 (4-22), 2.0 mg/kg SC q24h) was 38.4 °C. For the same compound, the “clinical response (appetite, mental state, weight)” value ([2]; after 2 weeks of treatment, 2.0 mg/kg SC q24h) was “remarkable clinical response with improved appetite and mental state, and weight gain”, the body weight increase ([2]; during and after the treatment (D1-14, 2.0 mg/kg SC q24h)) was 9% and the “hydrothorax (chest X-ray)” value ([2]; since about 7 days after the treatment, 2.0 mg/kg SC q24h) was “completely regressed”. For the same compound, the “body temperature maintained in the normal range” value ([2]; throughout the treatment (D1-14, 2.0 mg/kg SC q24h), no fever at enrollment) was 38-38.5 °C.
